Measured values as given in patent US20240131167A1, “EGFR Degraders and Associated Methods of Use” (BeiGene Switzerland GmbH, priority 2021, published 2024).

How the values were obtained:
[1] = system: EGFR (Del19/T790M/C797S) in H1975-clone #28 cells; assay: Cell degradation of EGFR, HTRF assay, H1975-clone #28 cells; format: cell-based; conditions: H1975-clone #28 (Del19/T790M/C797S, homozygous), 16 h treatment; for DC50: HTRF; for Dmax H1975 #28: maximum percentage of inhibition (degradation)
Procedure: (§1) BaF3-LTC (L858R/T790M/C797S) cells are treated with compounds diluted in 0.2% DMSO cell culture medium and incubate for 16 h, 37° C., 5% CO2. H1975-#28 cells are treated with compounds diluted in 0.2% DMSO cell culture medium on day 2, incubate for 16 h, 37° C., 5% CO2, the final concentration of compounds in all assay is start with 10 uM, 4-fold dilution, total 8 doses were included.
(§2) After 16 h treatment, add HTRF lysis buffer to each well; seal the plate and incubate 1 hour at room temperature on a plate shaker. Once the cells are lysed, 16 μL of cell lysate are transferred to a PE 384-well HTRF detection plate: 4 μL of pre-mixed HTRF antibodies are added to each well; Cover the plate with a plate sealer, spin 1000 rpm for 1 min, Incubate overnight at room temperature; Read on BMG PheraStar with HTRF protocol (337 nm-665 nm-620 nm).
(§3) The inhibition (degradation) percentage of the compound was calculated by the following equation: […]
(§4) The IC50 (DC50) value of a compound can be obtained by fitting the following equation
(§5) Y=Bottom+(TOP−Bottom)/(1+((IC50/X)^hillslope))
(§6) Wherein, X and Y are known values, and IC50. Hillslope, Top and Bottom are the parameters obtained by fitting with software. Y is the inhibition percentage (calculated from the equation), X is the concentration of the compound; IC50 is the concentration of the compound when the 50% inhibition is reached. The smaller the IC50 value is, the stronger the inhibitory ability of the compound is. Vice versa, the higher the IC50 value is, the weaker the ability the inhibitory ability of the compound is; Hillslope represents the slope of the fitted curve, generally around 1*; Bottom represents the minimum value of the curve obtained by data fitting, which is generally 0%±20%. Top represents the maximum value of the curve obtained by data fitting, which is generally 100%±20%. The experimental data were fitted by calculating and analyzing with Dotmatics data analysis software.

[2] = biological target: T1, EGFR (L858R/T790M/C797S) in BaF3-LTC cells (Homo sapiens, UniProt P00533, C797S/L858R/T790M); assay: Cell degradation of EGFR, HTRF assay, BaF3-LTC cells; format: cell-based; conditions: 16 h treatment; for DC50: HTRF; for Dmax: maximum percentage of inhibition (degradation)
T1 construct: expressed in transfected cells; host or cells: BaF3-LTC
T1 sequence (P00533 25-1210 T790M/C797S/L858R): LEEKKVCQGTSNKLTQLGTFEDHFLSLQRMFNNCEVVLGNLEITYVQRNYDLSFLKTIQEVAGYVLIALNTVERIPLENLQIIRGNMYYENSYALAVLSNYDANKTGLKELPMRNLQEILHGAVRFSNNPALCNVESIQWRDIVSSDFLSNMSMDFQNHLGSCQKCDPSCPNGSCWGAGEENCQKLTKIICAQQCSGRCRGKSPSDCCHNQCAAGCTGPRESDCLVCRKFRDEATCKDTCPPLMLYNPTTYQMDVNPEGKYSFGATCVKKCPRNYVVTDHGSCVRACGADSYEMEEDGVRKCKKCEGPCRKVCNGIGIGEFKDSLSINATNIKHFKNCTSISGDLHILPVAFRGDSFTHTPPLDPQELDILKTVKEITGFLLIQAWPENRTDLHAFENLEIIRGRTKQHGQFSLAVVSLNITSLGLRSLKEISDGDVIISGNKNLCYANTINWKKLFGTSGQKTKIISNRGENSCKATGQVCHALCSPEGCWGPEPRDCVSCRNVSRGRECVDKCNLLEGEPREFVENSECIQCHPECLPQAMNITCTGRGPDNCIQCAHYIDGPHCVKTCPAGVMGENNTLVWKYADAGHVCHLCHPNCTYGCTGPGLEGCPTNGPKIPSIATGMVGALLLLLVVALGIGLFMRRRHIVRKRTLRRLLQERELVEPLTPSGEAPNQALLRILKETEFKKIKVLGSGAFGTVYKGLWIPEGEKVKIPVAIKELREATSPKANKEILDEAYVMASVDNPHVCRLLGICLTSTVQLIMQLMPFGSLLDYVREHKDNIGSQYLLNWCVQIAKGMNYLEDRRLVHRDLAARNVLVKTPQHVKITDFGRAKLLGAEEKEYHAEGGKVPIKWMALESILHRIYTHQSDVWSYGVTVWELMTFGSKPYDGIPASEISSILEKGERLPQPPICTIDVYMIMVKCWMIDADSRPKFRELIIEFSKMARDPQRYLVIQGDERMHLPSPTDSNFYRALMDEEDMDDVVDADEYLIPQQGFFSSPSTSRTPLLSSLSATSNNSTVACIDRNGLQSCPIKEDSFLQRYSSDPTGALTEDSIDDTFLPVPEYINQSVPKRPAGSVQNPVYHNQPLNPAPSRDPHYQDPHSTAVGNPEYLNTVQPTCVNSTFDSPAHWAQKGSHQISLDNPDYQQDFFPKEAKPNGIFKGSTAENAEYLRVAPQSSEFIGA
Procedure: as §1, §2, §3, §4, §5, §6

Row | Structure (SMILES) | DC50 [1] | DC50 [2] | Dmax [2] | Dmax H1975 #28 [1]
1 | CCc1cc(Nc2ncc(Br)c(Nc3ccccc3P3(=O)CCCC3)n2)c(OC)cc1N1CCC(N2CCN(C(=O)[C@@H]3CCN(c4cc(F)c(C5CCC(=O)NC5=O)c(F)c4)C3)CC2)CC1 (stereo partly drawn) [Example 111, 3-(4-((R)-3-(4-(1-(4-((5-bromo-4-((2-(1-oxidophospholan-1-yl)phenyl)amino)pyrimidin-2-yl)amino)-2-ethyl-5-methoxyphenyl)piperidin-4-yl)piperazine-1-carbonyl)pyrrolidin-1-yl)-2,6-difluorophenyl)piperidine-2,6-dione] | 4.31 nM | 26.8 nM | 90.3% | 87.16%
2 | CCc1cc(Nc2ncc(Br)c(Nc3ccc4nc(C)ccc4c3P3(=O)CCCC3)n2)c(OC)cc1N1CCC(N2CCN(CCc3cccc4c3n(C)c(=O)n4C3CCC(=O)NC3=O)CC2)CC1 (stereo not shown) [Example 68, 3-(4-(2-(4-(1-(4-((5-bromo-4-((2-methyl-5-(1-oxidophospholan-1-yl)quinolin-6-yl)amino)pyrimidin-2-yl)amino)-2-ethyl-5-methoxyphenyl)piperidin-4-yl)piperazin-1-yl)ethyl)-3-methyl-2-oxo-2,3-dihydro-1H-benzo[d]imidazol-1-yl)piperidine-2,6-dione] | 1.34 nM | 3.46 nM | 90.8% | 85.88%
3 | CCc1cc(Nc2ncc(Br)c(Nc3ccc4nc(C)ccc4c3P3(=O)CCCC3)n2)c(OC)cc1N1CCC(N2CCN(CCc3ccc4c(c3)oc(=O)n4C3CCC(=O)NC3=O)CC2)CC1 (stereo not shown) [Example 71, 3-(6-(2-(4-(1-(4-((5-bromo-4-((2-methyl-5-(1-oxidophospholan-1-yl)quinolin-6-yl)amino)pyrimidin-2-yl)amino)-2-ethyl-5-methoxyphenyl)piperidin-4-yl)piperazin-1-yl)ethyl)-2-oxobenzo[d]oxazol-3(2H)-yl)piperidine-2,6-dione] | 1.38 nM | 2.51 nM | 88.6% | 72.97%
4 | CCc1cc(Nc2ncc(Br)c(Nc3ccc4nc(C)ccc4c3P3(=O)CCCC3)n2)c(OC)cc1N1CCC(N2CCN(CCc3cccc4c3C(C)(C)C(=O)N4C3CCC(=O)NC3=O)CC2)CC1 (stereo not shown) [Example 73, 3-(4-(2-(4-(1-(4-((5-bromo-4-((2-methyl-5-(1-oxidophospholan-1-yl)quinolin-6-yl)amino)pyrimidin-2-yl)amino)-2-ethyl-5-methoxyphenyl)piperidin-4-yl)piperazin-1-yl)ethyl)-3,3-dimethyl-2-oxoindolin-1-yl)piperidine-2,6-dione] | 0.66 nM | 7.52 nM | 89.9% | 78.13%

Continued, in another order:

Row | DC50 [1] | DC50 [2] | Dmax [2] | Structure (SMILES) | Dmax H1975 #28 [1]
5 | 2.99 nM | 19.8 nM | 90.2% | CCc1cc(Nc2ncc(Br)c(Nc3ccccc3P3(=O)CCCC3)n2)c(OC)cc1N1CCC(N2CCN(C(=O)C3CN(c4cc(F)c(C5CCC(=O)NC5=O)c(F)c4)C3)CC2)CC1 (stereo not shown) [Example 148, 3-(4-(3-(4-(1-(4-((5-bromo-4-((2-(1-oxidophospholan-1-yl)phenyl)amino)pyrimidin-2-yl)amino)-2-ethyl-5-methoxyphenyl)piperidin-4-yl)piperazine-1-carbonyl)azetidin-1-yl)-2,6-difluorophenyl)piperidine-2,6-dione] | 78.19%
6 | 0.77 nM | 1.82 nM | 91.8% | CCc1cc(Nc2ncc(Br)c(Nc3ccc4nc(C)ccc4c3P3(=O)CC=CC3)n2)c(OC)cc1N1CCC(N2CCN(CCc3ccc4c(c3)oc(=O)n4C3CCC(=O)NC3=O)CC2)CC1 (stereo not shown) [Example 145, 3-(6-(2-(4-(1-(4-((5-bromo-4-((2-methyl-5-(1-oxido-2,5-dihydrophosphol-1-yl)quinolin-6-yl)amino)pyrimidin-2-yl)amino)-2-ethyl-5-methoxyphenyl)piperidin-4-yl)piperazin-1-yl)ethyl)-2-oxobenzo[d]oxazol-3(2H)-yl)piperidine-2,6-dione] | 75.97%
7 | 3.15 nM | 75.1 nM | 86.6% | CCc1cc(Nc2ncc(Br)c(Nc3ccccc3P3(=O)CCCC3)n2)c(OC)cc1N1CCC(N2CCN(CCc3cc(F)c(C4CCC(=O)NC4=O)c(F)c3)CC2)CC1 (stereo not shown) [Example 147, 3-(4-(2-(4-(1-(4-((5-bromo-4-((2-(1-oxidophospholan-1-yl)phenyl)amino)pyrimidin-2-yl)amino)-2-ethyl-5-methoxyphenyl)piperidin-4-yl)piperazin-1-yl)ethyl)-2,6-difluorophenyl)piperidine-2,6-dione] | 82.21%
